# Patent publication US20090246293A1 (priority 2008, published 2009)
# Like-named read-outs stand apart in the source and are kept apart here.
# How the values were obtained:
# [1] = system: Plasmopara viticola (PLASVI); format: in vivo; details: for Reduction in percent disease: aldehyde derivative 100 ppm with mancozeb
# [2] = system: Pseudoperonospora cubensis (PSPECU); details: in vivo
# Phytophthora infestans = format: in vivo; details: for % Disease: potatoes, field, six sprays, rated 8 days after sixth application; for Disease control compared to Dithane alone (in words): combined with Dithane, potato field trial
# [3] = system: Pseudoperonospora cubensis; test: Drop-band treatment of cucumber leaves, then spray inoculation with zoospores (Examples 1-3); format: in vivo
# Procedure: The following examples were carried out on greenhouse and growth chamber experiments on cucumber plants. The cucumber plants were grown from seed in soil-free medium mix (Metro-Mix 360®) and maintained in a glasshouse with supplementary light sources to provide a 16 hour photoperiod at 24-29° C. until the plants had produced 1-2 true leaves. Plants were then trimmed to 1 true leaf, approximately 8 cm across by removing any additional leaves.
# Referring below to Table 1, Dithane M45 and Dithane OS are standard commercial formulations. Isovaleraldehyde loaded onto PergoPak was prepared using the following procedure: a mixture of 1.35 g of PergoPak M (polyurea), 0.15 g of isovaleraldehyde and 8 mL of ether was stirred at room temperature for 10 min. The mixture was then concentrated by rotatory evaporation at room temperature under a slight vacuum to provide a solid that was air dried for an hour at room temperature and then bottled. All treatments were prepared by adding the appropriate amount of each treatment to distilled water to give the desired concentration of active ingredient. Dithane® M45 suspensions were initially prepared via serial dilution. Mancozeb/isovaleraldehyde solutions were prepared by adding a prepared isovaleraldehyde solution to a prepared mancozeb suspension. All solutions were vortexed and sonicated prior to treatment application to ensure that they were homogenous.
# A sporangial suspension of Pseudoperonospora cubensis was made by collecting leaves with freshly sporulating lesions and washing them in distilled water, which was made up of equal volumes of chilled (4° C.) and tap distilled water (21° C.). The suspension was then left on the lab bench for 2 hours to allow the release of zoospores from the sporangia. After 2 hours the suspension was filtered through filter paper (“Whatman”, 12.5 cm, grade 113V) to remove any remaining sporangia and mycelial fragments. The zoospore concentration was determined and then adjusted to the desired concentration with distilled water.
# For each example described below, an area 5 cm wide by 1 cm deep was initially marked on each cucumber leaf by placing a mark in each corner of the area. This was repeated on four separate plants to give four replicates for each treatment. Ten 15 microlitre drops were then applied to each leaf in two 5 drop bands (1 cm between each drop) and allowed to dry overnight. Subsequently a zoospore suspension of Pseudoperonospora cubensis (30,000 zoospores/mL) was sprayed with a hand-atomiser to the entire leaf until run-off. Plants were placed in a dew room (22° C. and 99% RH) for 24 hours then maintained in a growth room with supplementary light sources to provide a 14 hour photoperiod at 18° C. and 70% RH until disease assessment.
# Assessment of the effectiveness of the treatment was done by visual infection within the banded area. The banded area was evaluated on a percentage scale (with 0% representing no infection and 100% representing infection of the entire area) after 5-7 days.
# [4] = format: in vivo; details: mancozeb:fluazinam 1:1, mancozeb:dimethomorph 2:1, Formul. I/II at 100 ppm, untreated check 95%
# [5] = system: Phytophthora infestans (PHYTIN); format: in vivo; details: for effect of Formulation I on the effectiveness of fungicides, PHYTIN: Table 20
# [6] = system: Pseudoperonospora cubensis (PSPECU); test: Droplet application on cucumber leaf, growth chamber (Examples 5a-d); format: in vivo
# Procedure: Examples 5a through 5d were conducted in growth chambers on cucumber plants. Cucumbers (Cucumis sativus cv Bush Pickle Hybrid #901261) were grown from seed in 5 cm by 5 cm pots containing MetroMix™ growth medium (Scotts, Marysville, Ohio) and maintained in a glasshouse with supplementary light sources to provide a 14 hour photoperiod at 24-29° C. until the plants were in the 2-3 true leaf stage of growth and the oldest leaf was fully expanded.
# For examples 5a through 5d, described below, samples of mancozeb formulated as Dithane DG NT were dissolved in water to form a ½×dilution series. Mancozeb rates were 400, 200, 100 and 50 ppm. Samples of various aldehydes, amino acids, carboxylic acids, amines and alcohols were dissolved in acetone and then mixed with aqueous solutions of mancozeb. Attractant rates in the dilute solutions were 100, 200, 500 or 1000 ppm, depending on the experiment.
# Mixtures of attractant or attractant derivative plus mancozeb or mancozeb alone were applied to cucumber as a row of 5 or 7.5 ul droplets using a multi-channel pipetting device. Five droplets spaced 1 cm apart were placed along the mid-rib of the expanded cucumber leaf with the first droplet being positioned at least 1-cm from the leaf apex. Each treatment was replicated three or four times, depending on the experiment. Two to three hours after applying the treatments when droplets had dried, plants were inoculated with a suspension of sporangia of a Pseudoperonospora cubensis (PSPECU) and incubated as described in the methods for sprayed tests. When symptoms were well developed in untreated check plants, the experiment was assessed visually using a template 2 cm wide and 7 cm long with the long axis centered on the mid-rib of the treated leaf.
# Reduction in percent disease was calculated by subtracting percent disease on plants receiving a mixture of mancozeb plus the specified test substance from percent disease on plants receiving mancozeb alone. The results for examples 5a-5d are shown below in Tables 7-10; the reduction in percent disease was indicated as follows: […]
# [7] = Dithane 600 g ai/ha plus 300 ppm compound
# [8] = fungicide with Formulation I at 100 ppm, Table 18
# [9] = fungicide with Formulation I at 100 ppm, Table 19
# [10] = fungicide with Formulation I at 100 ppm
# [11] = substance alone 500 ppm, untreated check 95
compound,measurement,setting,value
condensation product of urea and isovalderaldehyde [Compound B],Reduction in percent disease,"[1]; PLASVI, Table 13",xx (21-35% reduction in percent disease)
same,Reduction in percent disease,"[1]; PLASVI, Table 15",xx (21-35% reduction in percent disease)
same,Reduction in percent disease,[2],x (key: x: 0-20% reduction in percent disease; xx: 21-35% reduction in percent disease; xxx: 36-50% reduction in percent disease; xxxx: >50% reduction in percent disease)
same,% Disease,Phytophthora infestans; 300 ppm compound alone,98%
same,% Disease,Phytophthora infestans; [7],9%
same,Disease control compared to Dithane alone (in words),Phytophthora infestans,significantly improve disease control
CCCC=NNC(=O)Nc1ccccc1 [Compound A],Reduction in percent disease,"[1]; PLASVI, Table 13",xx (21-35% reduction in percent disease)
same,Reduction in percent disease,[2],xx (key: x: 0-20% reduction in percent disease; xx: 21-35% reduction in percent disease; xxx: 36-50% reduction in percent disease; xxxx: >50% reduction in percent disease)
same,% Disease,Phytophthora infestans; 300 ppm compound alone,98%
same,% Disease,Phytophthora infestans; [7],20%
same,Disease control compared to Dithane alone (in words),Phytophthora infestans,significantly improve disease control
mancozeb,Percent infection of Pseudoperonospora cubensis on cucumbers,"[3]; mancozeb 10 ppm (Dithane 60 OS) alone, 5 days after application",31%
same,Percent infection of Pseudoperonospora cubensis on cucumbers,"[3]; mancozeb 10 ppm (Dithane M45) alone, 6 days after application",31%
same,Percent infection of Pseudoperonospora cubensis on cucumbers,"[3]; mancozeb 10 ppm (Dithane M45) alone, 7 days after application",30%
same,Percent infection of Pseudoperonospora cubensis on cucumbers,"[3]; mancozeb 50 ppm (Dithane 60 OS) alone, 5 days after application",25%
same,Percent infection of Pseudoperonospora cubensis on cucumbers,"[3]; mancozeb 50 ppm (Dithane M45) alone, 6 days after application",21%
same,Percent infection of Pseudoperonospora cubensis on cucumbers,"[3]; mancozeb 50 ppm (Dithane M45) alone, 7 days after application",11%
same,Percent infection of Pseudoperonospora cubensis on cucumbers,"[3]; mancozeb 100 ppm (Dithane 60 OS) alone, 5 days after application",10%
same,Percent infection of Pseudoperonospora cubensis on cucumbers,"[3]; mancozeb 100 ppm (Dithane M45) alone, 6 days after application",16%
same,Percent infection of Pseudoperonospora cubensis on cucumbers,"[3]; mancozeb 100 ppm (Dithane M45) alone, 7 days after application",6%
same,Reduction in percent disease PLASVI,[1]; [8],xx (21-35% reduction in percent disease)
same,Reduction in percent disease PLASVI,[1]; [9],xx (21-35% reduction in percent disease)
same,"effect of Formulation I on the effectiveness of fungicides, PLASVI","[1]; fungicide with Formulation I at 100 ppm, Table 20",xx (21-35% reduction in percent disease)
same,"effect of Formulation I on the effectiveness of fungicides, PSPECU",[2],xx (key: x: 0-20% reduction in percent disease; xx: 21-35% reduction in percent disease; xxx: 36-50% reduction in percent disease; xxxx: >50% reduction in percent disease)
same,Percent disease,[4]; 1.6 ppm mancozeb,71%
same,Percent disease,[4]; 3.1 ppm mancozeb,79%
same,Reduction in percent disease PHYTIN,[5]; [8],x (0-20% reduction in percent disease)
same,Reduction in percent disease PHYTIN,[5]; [9],xxx (36-50% reduction in percent disease)
same,"effect of Formulation I on the effectiveness of fungicides, PHYTIN",[5]; [10],xx (21-35% reduction in percent disease)
"CC(C)CC=O [Isovaleraldehyde, isovaleraldehyde]",Reduction in % Disease,"[6]; substance 100 ppm with mancozeb 200 ppm vs mancozeb alone, Table 9",xx (21-35% reduction in percent disease)
same,Reduction in % Disease,"[6]; substance 200 ppm with mancozeb 50 ppm vs mancozeb alone, cucumber",xxxx (>50% reduction in percent disease)
same,Reduction in % Disease,"[6]; substance 500 ppm with mancozeb 200 ppm vs mancozeb alone, Table 8",xx (21-35% reduction in percent disease)
same,Reduction in % Disease,"[6]; substance 1000 ppm with mancozeb 50 ppm vs mancozeb alone, cucumber",xxx (36-50% reduction in percent disease)
same,% disease at 100 ppm of substance alone,"[6]; substance alone 100 ppm, untreated check 92%, Table 9",86%
same,% disease at 500 ppm of substance alone,"[6]; substance alone 500 ppm, untreated check 91%",93%
same,% disease at 1000 ppm of substance alone,"[6]; substance alone 1000 ppm, untreated check 100%",100%
same,Percent infection of Pseudoperonospora cubensis on cucumbers,"[3]; isovaleraldehyde 50 ppm (sorbed to PergoPak M) alone, 5 days after application",41%
same,Percent infection of Pseudoperonospora cubensis on cucumbers,"[3]; isovaleraldehyde 100 ppm (sorbed to PergoPak M) alone, 5 days after application",34%
same,Percent infection of Pseudoperonospora cubensis on cucumbers,"[3]; isovaleraldehyde 100 ppm alone, 7 days after application",41%
same,Percent infection of Pseudoperonospora cubensis on cucumbers,"[3]; isovaleraldehyde 500 ppm (sorbed to PergoPak M) alone, 5 days after application",44%
same,Percent infection of Pseudoperonospora cubensis on cucumbers,"[3]; pure isovaleraldehyde 50 ppm alone, 6 days after application",51%
same,Percent infection of Pseudoperonospora cubensis on cucumbers,"[3]; pure isovaleraldehyde 100 ppm alone, 6 days after application",44%
same,Reduction in percent disease PLASVI,"[1]; substance 500 ppm with mancozeb 6.25 ppm (Dithane DGNT), foliar spray, inoculated 2 to 3 hours after treatment",xxx (36-50% reduction in percent disease)
same,% disease at 500 ppm of substance alone PLASVI,[1]; [11],93%
same,Reduction in percent disease PHYTIN,"[5]; substance 500 ppm with mancozeb 25 ppm (Dithane DGNT), foliar spray, inoculated 2 to 3 hours after treatment",xxx (36-50% reduction in percent disease)
same,% disease at 500 ppm of substance alone PHYTIN,[5]; [11],77%
"CC(C)CC(O)S(=O)(=O)[O-].[Na+] (stereo not shown) [Isovaleraldehyde bisulfite adduct, sodium]",Percent infection of Pseudoperonospora cubensis on cucumbers,"[3]; isovaleraldehyde bisulfite adduct, sodium 100 ppm alone, 7 days",45%
"N#Cc1c(Cl)c(Cl)c(Cl)c(C#N)c1Cl [Chlorothalonil, chlorothalonil]",Percent infection of Pseudoperonospora cubensis on cucumbers,"[3]; chlorothalonil 5 ppm alone, 7 days after application",24%
same,Percent infection of Pseudoperonospora cubensis on cucumbers,"[3]; chlorothalonil 20 ppm alone, 7 days after application",9%
same,Percent infection of Pseudoperonospora cubensis on cucumbers,"[3]; chlorothalonil 100 ppm alone, 7 days after application",0%
same,"Reduction in percent disease, Formul. I","[1]; PLASVI, fungicide with Formulation I at 100 ppm of attractant derivative, Table 22",x (0-20% reduction in percent disease)
same,"Reduction in percent disease, Formul. I",[2],x (key: x: 0-20% reduction in percent disease; xx: 21-35% reduction in percent disease; xxx: 36-50% reduction in percent disease; xxxx: >50% reduction in percent disease)
same,"Reduction in percent disease, Formul. I","[5]; PHYTIN, fungicide with Formulation I at 100 ppm of attractant derivative, Table 22",x (0-20% reduction in percent disease)
"CCC(C)(NC(=O)c1cc(Cl)c(C)c(Cl)c1)C(=O)CCl (stereo not shown) [Zoxamide, zoxamide]",Percent infection of Pseudoperonospora cubensis on cucumbers,"[3]; zoxamide 1 ppm alone, 7 days after application",28%
same,Percent infection of Pseudoperonospora cubensis on cucumbers,"[3]; zoxamide 5 ppm alone, 7 days after application",16%
same,Percent infection of Pseudoperonospora cubensis on cucumbers,"[3]; zoxamide 25 ppm alone, 7 days after application",16%
same,"effect of Formulation I on the effectiveness of fungicides, PSPECU",[2],x (key: x: 0-20% reduction in percent disease; xx: 21-35% reduction in percent disease; xxx: 36-50% reduction in percent disease; xxxx: >50% reduction in percent disease)
same,"effect of Formulation I on the effectiveness of fungicides, PHYTIN",[5]; [10],xx (21-35% reduction in percent disease)
